The subject of one assay is U87MG cells. The assay is described as follows: Cellular assay, inhibition of 2-HG production in U87MG cells. Format: cell-based. In a few lines:
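HT1080 or U87MG cells (U87MG kept with 500 ug/mL G418) seeded at 5000 cells/well and treated with compound at 0.2% final DMSO. Incubated 48 h at 37 °C. 2-HG inhibition determined by LC-MS. Viability read by CellTiter-Glo luminescence at 72 h post-dose.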

In another assay the test system is HT1080 cells. The assay is described as follows: Cellular assay, inhibition of 2-HG production in HT1080 cells. Type of assay: cell-based. How it is done: Cells (HT1080 or U87MG) are grown in T125 flasks in DMEM containing 10% FBS, 1× penicillin/streptomycin and 500 ug/mL G418 (present in U87MG cells only). They are harvested by trypsin and seeded into 96 well white bottom plates at a density of 5000 cell/well in 100 ul/well in DMEM with 10% FBS. […] Cells are incubated overnight at 37° C. in 5% CO2. The next day test compounds are made up at 2× the final concentration and 100 ul are added to each cell well. The final concentration of DMSO is 0.2% and the DMSO control wells are plated in row G. The plates are then placed in the incubator for 48 hours. […] The cell plate is placed back in the incubator for another 24 hours. At 72 hours post compound addition, 10 mL/plate of Promega Cell Titer Glo reagent is thawed and mixed. The cell plate is removed from the incubator and allowed to equilibrate to room temperature. Then 100 ul of Promega Cell Titer Glo reagent is added to each well of media. The cell plate is then placed on an orbital shaker for 10 minutes and then allowed to sit at room temperature for 20 minutes. The plate is then read for luminescence with an integration time of 500 ms.

Consider `N#Cc1ccnc(N2C(=O)CC[C@H]2C(=O)N(c2cccc(-c3cn[nH]c3)c2)[C@H](C(=O)NC2CC(F)(F)C2)c2ccccc2Cl)c1` (single isomer, unassigned) [Compound 200], for which the IC50 with U87MG cells (Homo sapiens, U-87 MG, 48 h) is less than 100 nM; with HT1080 cells (Homo sapiens, HT-1080, 48 h), less than 100 nM. Consider `O=C(NC1CCC(F)(F)C1)C(c1ccccc1Cl)N(C(=O)[C@@H]1CCC(=O)N1c1ncccn1)c1cccc(F)c1` (mixture of isomers) [Compound 73, (2S)—N-(1-(2-Chlorophenyl)-2-((3,3-difluorocyclopentyl)amino)-2-oxoethyl)-N-(3-fluorophenyl)-5-oxo-1-(pyrimidin-2-yl)pyrrolidine-2-carboxamide], for which the concentration for half-maximal inhibition (IC50) in the assay on U87MG cells (Homo sapiens, U-87 MG, 48 h) is less than 100 nM; in the assay on HT1080 cells (Homo sapiens, HT-1080, 48 h), less than 100 nM. As for `O=C(NC1CC(F)(F)C1)[C@H](c1ccccc1Cl)N(C(=O)[C@@H]1CCC(=O)N1c1nccc2ccccc12)c1cccc(F)c1` [Compound 16], the IC50 in the assay with U87MG cells (Homo sapiens, U-87 MG, 48 h) was in the range of 500 to 1000 nM; in the assay on HT1080 cells (Homo sapiens, HT-1080, 48 h) it was 100 to 500 nM.

In turn, `O=C(NC1CCC(F)(F)CC1)[C@@H](c1ccccc1Cl)N(C(=O)[C@@H]1CCC(=O)N1c1ncccn1)c1cccc(F)c1` [Compound 3, (S)—N—((R)-1-(2-Chlorophenyl)-2-((4,4-difluorocyclohexyl)amino)-2-oxoethyl)-N-(3-fluorophenyl)-5-oxo-1-(pyrimidin-2-yl)pyrrolidine-2-carboxamide] returned a concentration for half-maximal inhibition (IC50) in the assay on HT1080 cells (Homo sapiens, HT-1080, 48 h) of 100 to 500 nM. Consider `O=C(NC1CC(F)(F)C1)[C@H](c1ccccc1Cl)N(C(=O)[C@@H]1CCC(=O)N1c1ccc(Cl)cn1)c1cccc(F)c1` [Compound 48], for which the IC50 in the assay with U87MG cells (Homo sapiens, U-87 MG, 48 h) was in the range of 100 to 500 nM; with HT1080 cells (Homo sapiens, HT-1080, 48 h), 100 to 500 nM. Consider `N#Cc1cncc(N(C(=O)[C@@H]2CCC(=O)N2c2cc(C#N)ccn2)[C@H](C(=O)NC2CC(F)(F)C2)c2ccccc2)c1` [Compound 212], for which the half-maximal inhibitory concentration (IC50) in the assay with U87MG cells (Homo sapiens, U-87 MG, 48 h) was less than 100 nM; in the assay with HT1080 cells (Homo sapiens, HT-1080, 48 h) it was less than 100 nM.

As to `CS(=O)(=O)c1cccc(N(C(=O)[C@@H]2CCC(=O)N2c2nccc(C#N)n2)C(C(=O)NC2CC(F)(F)C2)c2ccccc2Cl)c1` (mixture of isomers) [Compound 102, (2S)—N-(1-(2-Chlorophenyl)-2-((3,3-difluorocyclobutyl)amino)-2-oxoethyl)-1-(4-cyanopyrimidin-2-yl)-N-(3-(methylsulfonyl)phenyl)-5-oxopyrrolidine-2-carboxamide], the IC50 in the assay on U87MG cells (Homo sapiens, U-87 MG, 48 h) is 100 to 500 nM; in the assay on HT1080 cells (Homo sapiens, HT-1080, 48 h), less than 100 nM. In the same order, the values of `O=C(NC1CC(F)(F)C1)[C@H](c1ccccc1Cl)N(C(=O)[C@@H]1COCC(=O)N1c1ncccn1)c1cccc(F)c1` [Compound 45] are 100 to 500 nM and 100 to 500 nM. In the same order, the values of `N#Cc1cccc(N(C(=O)[C@@H]2CCC(=O)N2c2nccc(C#N)n2)[C@H](C(=O)NC2CCC(F)(F)CC2)c2ccccc2Cl)c1` [Compound 178, (S)—N—((S)-1-(2-Chlorophenyl)-2-((4,4-difluorocyclohexyl)amino)-2-oxoethyl)-N-(3-cyanophenyl)-1-(4-cyanopyrimidin-2-yl)-5-oxopyrrolidine-2-carboxamide] are less than 100 nM and 100 to 500 nM. On to “(S)-1-(4-Cyanopyridin-2-yl)-N—((S)-2-(3,3-difluorocyclobutylamino)-1-(2-fluorophenyl)-2-oxoethyl)-N-(3,5-difluorophenyl)-5-oxopyrrolidine-2-carboxamide [Compound 208]”, for which the half-inhibitory concentration (IC50) was less than 100 nM in the assay with U87MG cells (inhibition of 2-HG production, U87MG cells, 48 hours) and less than 100 nM with HT1080 cells (inhibition of 2-HG production, HT1080 cells, 48 hours). Regarding `CC(C)(C)c1cccc(N(C(=O)[C@@H]2CCC(=O)N2c2nccc(C#N)n2)[C@H](C(=O)NC2CC(F)(F)C2)c2ccccc2Cl)c1` [Compound 165, (S)—N-(3-(tert-Butyl)phenyl)-N—((S)-1-(2-chlorophenyl)-2-((3,3-difluorocyclobutyl)amino)-2-oxoethyl)-1-(4-cyanopyrimidin-2-yl)-5-oxopyrrolidine-2-carboxamide], the concentration for half-maximal inhibition (IC50) was less than 100 nM with U87MG cells (Homo sapiens, U-87 MG, 48 h) and less than 100 nM in the assay on HT1080 cells (Homo sapiens, HT-1080, 48 h).

Compound `Cc1cccc(N2C(=O)CC[C@H]2C(=O)N(c2cccc(F)c2)[C@H](C(=O)NC2CC(F)(F)C2)c2ccccc2Cl)n1` [Compound 28] came in with an IC50 in the assay on HT1080 cells (Homo sapiens, HT-1080, 48 h) of less than 100 nM.

Consider `O=C(NC1CCCCC1)[C@@H](c1ccccc1Cl)N(C(=O)[C@@H]1CCC(=O)N1c1ncccn1)c1cccc(F)c1` [Compound 6], for which the IC50 in the assay on HT1080 cells (Homo sapiens, HT-1080, 48 h) was in the range of 100 to 500 nM.

Usually IC50 stands for the concentration that gives 50% inhibition. A high value points to lower potency.

Values taken from patent US10640534B2 (Agios Pharmaceuticals, Inc., priority 2012, dated 2020).
